This note sets out measurements from patent publication US9315498B2, “Arlethynyl derivatives” (Hoffmann-La Roche Inc., priority 2010, dated 2016).

In the experiment the target is human mGlu5a receptor (Homo sapiens (Human), UniProt P41594). As to the kind of experiment: Intracellular Ca2+ mobilization assay (mGlu5 PAM). Type of experiment: cell-based. The conditions noted are these: for EC50: HEK-293 cells stably transfected with human mGlu5a, L-glutamate added at EC20 after pre-incubation with test compound, read-out: EC50 (nM) mGlu5PAM; for Emax: maximal response in % of the maximal stimulatory effect obtained with saturating concentrations of L-glutamate, read-out: Eff. (%). As for the experimental part:
A monoclonal HEK-293 cell line stably transfected with a cDNA encoding for the human mGlu5a receptor was generated; for the work with mGlu5 Positive Allosteric Modulators (PAMs), a cell line with low receptor expression levels and low constitutive receptor activity was selected to allow the differentiation of agonistic versus PAM activity. Cells were cultured according to standard protocols (Freshney, 2000) in Dulbecco's Modified Eagle Medium with high glucose supplemented with 1 mM glutamine, 10% (vol/vol) heat-inactivated bovine calf serum, Penicillin/Streptomycin, 50 μg/ml hygromycin and 15 μg/ml blasticidin (all cell culture reagents and antibiotics from Invitrogen, Basel, Switzerland).
About 24 hrs before an experiment, 5×10^4 cells/well were seeded in poly-D-lysine coated, black/clear-bottomed 96-well plates. The cells were loaded with 2.5 μM Fluo-4AM in loading buffer (1×HBSS, 20 mM HEPES) for 1 hr at 37° C. and washed five times with loading buffer. The cells were transferred into a Functional Drug Screening System 7000 (Hamamatsu, Paris, France), and 11 half logarithmic serial dilutions of test compound at 37° C. were added and the cells were incubated for 10-30 min. with on-line recording of fluorescence. Following this pre-incubation step, the agonist L-glutamate was added to the cells at a concentration corresponding to EC20 (typically around 80 μM) with on-line recording of fluorescence; in order to account for day-to-day variations in the responsiveness of cells, the EC20 of glutamate was determined immediately ahead of each experiment by recording of a full dose-response curve of glutamate.
Responses were measured as peak increase in fluorescence minus basal (i.e. fluorescence without addition of L-glutamate), normalized to the maximal stimulatory effect obtained with saturating concentrations of L-glutamate. Graphs were plotted with the % maximal stimulatory using XLfit, a curve fitting program that iteratively plots the data using Levenburg Marquardt algorithm. The single site competition analysis equation used was y=A+((B−A)/(1+((x/C)D))), where y is the % maximal stimulatory effect, A is the minimum y, B is the maximum y, C is the EC50, x is the log10 of the concentration of the competing compound and D is the slope of the curve (the Hill Coefficient). From these curves the EC50 (concentration at which half maximal stimulation was achieved), the Hill coefficient as well as the maximal response in % of the maximal stimulatory effect obtained with saturating concentrations of L-glutamate were calculated.
A depression of the signal observed after addition of the EC20 concentration of L-glutamate was indicative of an inhibitory activity of the test compound.
For orientation: Calcium flux is commonly read through the fluorescence of an indicator in the cells.

Sequence of human mGlu5a receptor (P41594 other isoform, or with tags, fused parts or gaps): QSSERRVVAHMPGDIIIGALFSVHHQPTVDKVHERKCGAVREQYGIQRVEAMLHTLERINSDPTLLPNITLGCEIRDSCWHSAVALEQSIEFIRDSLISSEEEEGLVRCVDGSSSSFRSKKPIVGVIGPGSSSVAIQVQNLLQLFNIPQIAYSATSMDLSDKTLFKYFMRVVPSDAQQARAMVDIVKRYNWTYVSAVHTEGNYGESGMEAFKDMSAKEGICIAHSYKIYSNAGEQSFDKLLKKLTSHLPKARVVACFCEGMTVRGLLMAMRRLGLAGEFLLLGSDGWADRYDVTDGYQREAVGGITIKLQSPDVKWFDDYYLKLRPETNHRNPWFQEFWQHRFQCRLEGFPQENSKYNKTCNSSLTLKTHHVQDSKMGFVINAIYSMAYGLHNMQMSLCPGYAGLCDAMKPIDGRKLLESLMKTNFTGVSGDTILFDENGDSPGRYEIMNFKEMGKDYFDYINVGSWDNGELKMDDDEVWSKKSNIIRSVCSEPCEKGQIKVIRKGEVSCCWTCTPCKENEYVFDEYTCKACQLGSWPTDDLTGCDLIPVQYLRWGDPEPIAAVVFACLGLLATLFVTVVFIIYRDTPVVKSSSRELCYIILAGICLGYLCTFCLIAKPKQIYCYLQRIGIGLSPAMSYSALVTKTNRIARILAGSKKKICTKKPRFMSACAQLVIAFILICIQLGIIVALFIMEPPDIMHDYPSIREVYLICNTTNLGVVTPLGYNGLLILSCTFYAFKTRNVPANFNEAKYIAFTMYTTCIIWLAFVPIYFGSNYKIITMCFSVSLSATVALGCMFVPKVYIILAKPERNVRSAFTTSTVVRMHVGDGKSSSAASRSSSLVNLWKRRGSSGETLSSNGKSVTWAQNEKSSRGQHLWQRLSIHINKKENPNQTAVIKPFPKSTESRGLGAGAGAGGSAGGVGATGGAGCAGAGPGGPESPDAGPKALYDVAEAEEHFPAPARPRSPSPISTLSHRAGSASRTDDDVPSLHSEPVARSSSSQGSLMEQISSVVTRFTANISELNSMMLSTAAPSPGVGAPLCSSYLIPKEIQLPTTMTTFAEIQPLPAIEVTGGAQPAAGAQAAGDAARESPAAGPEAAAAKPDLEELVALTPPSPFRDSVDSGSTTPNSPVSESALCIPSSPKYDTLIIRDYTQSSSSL

Usually EC50 stands for the midpoint of the concentration-response curve. For `COC1CN(c2ccc(C#Cc3ccccc3)cn2)C(=O)OC1(C)C` (racemic) [Example 114, (RS)-5-Methoxy-6,6-dimethyl-3-(5-phenylethynyl-pyridin-2-yl)-[1,3]oxazinan-2-one], the EC50 was 22 nM and the Emax came out at 57%.

As to `COC1C(=O)N(c2ncc(C#Cc3ccccc3)cn2)CC1(C)C` (racemic) [Example 127, (RS)-3-Methoxy-4,4-dimethyl-1-(5-phenylethynyl-pyrimidin-2-yl)-pyrrolidin-2-one], the EC50 was found to be 29 nM and the Emax turned out to be 94%.

Consider `COC1C(=O)N(c2ncc(C#Cc3cccc(F)c3)cn2)CC1(C)C` (racemic) [Example 130, (RS)-1-[5-(3-Fluoro-phenylethynyl)-pyrimidin-2-yl]-3-methoxy-4,4-dimethyl-pyrrolidin-2-one], for which the EC50 came out at 41 nM and the Emax amounted to 74%.

For the molecule `CC1CN(c2ncc(C#Cc3ccccc3)cn2)C(=O)OC1(C)C` (racemic) [Example 145, (RS)-5,6,6-Trimethyl-3-(5-phenylethynyl-pyrimidin-2-yl)-[1,3]oxazinan-2-one], the EC50 was 38 nM and the Emax amounted to 93%.

Regarding `CC1CN(c2ncc(C#Cc3cc(F)ccc3F)cn2)C(=O)OC1(C)C` (racemic) [Example 146, (RS)-3-[5-(2,5-Difluoro-phenylethynyl)-pyrimidin-2-yl]-5,6,6-trimethyl-[1,3]oxazinan-2-one], the EC50 came out at 69 nM and the Emax was determined as 64%.

`CC1CN(c2ncc(C#Cc3cccc(F)c3)cn2)C(=O)OC1(C)C` (racemic) [Example 148, (RS)-3-[5-(3-Fluoro-phenylethynyl)-pyrimidin-2-yl]-5,6,6-trimethyl-[1,3]oxazinan-2-one]: the half-maximal effective concentration (EC50) was found to be 39 nM and the Emax came to 75%.

For `CC1CN(c2ncc(C#Cc3ccc(F)cc3)cn2)C(=O)OC1(C)C` (racemic) [Example 149, (RS)-3-[5-(4-Fluoro-phenylethynyl)-pyrimidin-2-yl]-5,6,6-trimethyl-[1,3]oxazinan-2-one], the EC50 was determined as 114 nM and the Emax worked out at 78%.

Consider `COC1CN(c2ccc(C#Cc3cccc(F)c3)cn2)C(=O)OC1(C)C` (racemic) [Example 169, (RS)-3-[5-(3-Fluoro-phenylethynyl)-pyridin-2-yl]-5-methoxy-6,6-dimethyl-[1,3]oxazinan-2-one], for which the EC50 stood at 13 nM and the Emax stood at 52%.

On to `CN1C(=O)N(c2ccc(C#Cc3ccccc3)nn2)[C@@H]2CCC[C@@H]21` (racemic) [Example 170, (3aRS,6aSR)-1-Methyl-3-(6-phenylethynyl-pyridazin-3-yl)-hexahydro-cyclopentaimidazol-2-one], for which the EC50 came to 13 nM and the Emax turned out to be 105%.

For the molecule `CC1CN(c2ccc(C#Cc3ccccc3)cn2)C(=O)CO1` (racemic) [Example 171, (RS)-6-Methyl-4-(5-phenylethynyl-pyridin-2-yl)-morpholin-3-one], the EC50 was 88 nM and the Emax came out at 73%.

Turning to `CN1C(=O)N(c2ccc(C#Cc3cccc(F)c3)nn2)[C@@H]2CCC[C@@H]21` (racemic) [Example 174, (3aSR,6aRS)-1-[6-(3-Fluoro-phenylethynyl)-pyridazin-3-yl]-3-methyl-hexahydro-cyclopentaimidazol-2-one], the EC50 came out at 12 nM and the Emax came out at 56%.

For `COC[C@H]1CN(c2ccc(C#Cc3ccccc3)cn2)C(=O)O1` (single isomer, unassigned) [Example 3, (5R or 5S)-5-Methoxymethyl-3-(5-phenylethynyl-pyridin-2-yl)-oxazolidin-2-one], the EC50 worked out at 18 nM and the Emax was 46%.

With `COC[C@@H]1CN(c2ccc(C#Cc3ccccc3)cn2)C(=O)O1` (single isomer, unassigned) [Example 4, (5S or 5R)-5-Methoxymethyl-3-(5-phenylethynyl-pyridin-2-yl)-oxazolidin-2-one], the EC50 turned out to be 278 nM and the Emax is 98%.

With `CO[C@@H]1C(=O)N(c2ccc(C#Cc3ccccc3)cn2)CC1(C)C` (single isomer, unassigned) [Example 61], the EC50 was 75 nM and the Emax was found to be 70%.

Consider `CO[C@H]1C(=O)N(c2ccc(C#Cc3ccccc3)cn2)CC1(C)C` (single isomer, unassigned) [Example 62], for which the EC50 turned out to be 12 nM and the Emax turned out to be 86%.

As to `CO[C@@H]1C(=O)N(c2ncc(C#Cc3ccccc3)cn2)CC1(C)C` (single isomer, unassigned) [Example 128], the EC50 was 46 nM and the Emax is 54%.

For the molecule `CO[C@H]1C(=O)N(c2ncc(C#Cc3ccccc3)cn2)CC1(C)C` (single isomer, unassigned) [Example 129], the EC50 turned out to be 18 nM and the Emax was 90%.

Turning to `CO[C@@H]1C(=O)N(c2ncc(C#Cc3cccc(F)c3)cn2)CC1(C)C` (single isomer, unassigned) [Example 131, (R or S)-1-[5-(3-Fluoro-phenylethynyl)-pyrimidin-2-yl]-3-methoxy-4,4-dimethyl-pyrrolidin-2-one], the EC50 is 35 nM and the Emax is 48%.

For `CO[C@H]1C(=O)N(c2ncc(C#Cc3cccc(F)c3)cn2)CC1(C)C` (single isomer, unassigned) [Example 132, (S or R)-1-[5-(3-Fluoro-phenylethynyl)-pyrimidin-2-yl]-3-methoxy-4,4-dimethyl-pyrrolidin-2-one], the EC50 is 21 nM and the Emax is 69%.

Take `CO[C@@H]1C(=O)N(c2ncc(C#Cc3cc(F)ccc3F)cn2)CC1(C)C` (single isomer, unassigned) [Example 133, (R or S)-1-[5-(2,5-Difluoro-phenylethynyl)-pyrimidin-2-yl]-3-methoxy-4,4-dimethyl-pyrrolidin-2-one]: the EC50 came out at 57 nM and the Emax was found to be 49%.

Take `CC1(C)CN(c2ncc(C#Cc3ccccc3)cc2F)C(=O)O1` [Example 1, 3-(3-Fluoro-5-phenylethynyl-pyridin-2-yl)-5,5-dimethyl-oxazolidin-2-one]: the EC50 was 30 nM and the Emax came to 68%.

As to `CC1(C)CN(c2ccc(C#Cc3ccccc3)cn2)C(=O)O1` [Example 5, 5,5-Dimethyl-3-(5-phenylethynyl-pyridin-2-yl)-oxazolidin-2-one], the EC50 came to 7 nM and the Emax is 77%.

Regarding `CC1(C)CN(c2ccc(C#Cc3cccc(F)c3)cn2)C(=O)O1` [Example 6, 3-[5-(3-Fluoro-phenylethynyl)-pyridin-2-yl]-5,5-dimethyl-oxazolidin-2-one], the EC50 was found to be 9 nM and the Emax turned out to be 46%.

As for `CC1(C)CN(c2ccc(C#Cc3cccnc3)cn2)C(=O)O1` [Example 7, 5,5-Dimethyl-3-(5-pyridin-3-ylethynyl-pyridin-2-yl)-oxazolidin-2-one], the EC50 came to 33 nM and the Emax is 39%.

On to `O=C1OC2(CC2)CN1c1ccc(C#Cc2ccccc2)cn1` [Example 9, 6-(5-Phenylethynyl-pyridin-2-yl)-4-oxa-6-aza-spiro[2.4]heptan-5-one], for which the EC50 was determined as 15 nM and the Emax stood at 83%.

`O=C1OC2(CCC2)CN1c1ccc(C#Cc2ccccc2)cn1` [Example 10, 7-(5-Phenylethynyl-pyridin-2-yl)-5-oxa-7-aza-spiro[3.4]octan-6-one]: the EC50 came out at 25 nM and the Emax turned out to be 109%.

`O=C1OC2(CCCC2)CN1c1ccc(C#Cc2ccccc2)cn1` [Example 11, 3-(5-Phenylethynyl-pyridin-2-yl)-1-oxa-3-aza-spiro[4.4]nonan-2-one]: the EC50 turned out to be 39 nM and the Emax is 52%.

Take `O=C1OC2(CCCCC2)CN1c1ccc(C#Cc2ccccc2)cn1` [Example 12, 3-(5-Phenylethynyl-pyridin-2-yl)-1-oxa-3-aza-spiro[4.5]decan-2-one]: the EC50 was found to be 67 nM and the Emax is 80%.

As for `CC1(C)CC(=O)N(c2ccc(C#Cc3ccccc3)cn2)C1` [Example 13, 4,4-Dimethyl-1-(5-phenylethynyl-pyridin-2-yl)-pyrrolidin-2-one], the EC50 turned out to be 37 nM and the Emax turned out to be 129%.

For the molecule `CC1(C)CN(c2ccc(C#Cc3ccccc3)cn2)C(=O)N1` [Example 15, 4,4-Dimethyl-1-(5-phenylethynyl-pyridin-2-yl)-imidazolidin-2-one], the EC50 was 130 nM and the Emax is 101%.
